According to PubChem BioAssay (NCI):
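Step 1: Grow cells in 96-well plates. Step 2: Expose to compound for 48 hours at 5 concentrations. Step 3: Interpolate endpoints linearly; if unreached, use highest concentration. GI50 marks 50% less growth. TGI: concentration producing complete growth inhibition.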

Columns and labels:
Assay in all cases: NCI anticancer screen, dose series, 48 h
U251 CNS = system: U251 CNS
K-562 leukemia = system: K-562 leukemia
MDA-MB-468 breast = system: MDA-MB-468 breast
HCT-116 colon = system: HCT-116 colon
OVCAR-8 ovarian = system: OVCAR-8 ovarian
HCT-15 colon = system: HCT-15 colon
MALME-3M melanoma = system: MALME-3M melanoma
CCRF-CEM leukemia = system: CCRF-CEM leukemia
DU-145 prostate = system: DU-145 prostate
HOP-92 NSCLC = system: HOP-92 NSCLC
OVCAR-4 ovarian = system: OVCAR-4 ovarian
IGROV1 ovarian = system: IGROV1 ovarian
ACHN renal = system: ACHN renal
A498 renal = system: A498 renal
SNB-19 CNS = system: SNB-19 CNS
A549 NSCLC = system: A549 NSCLC
UO-31 renal = system: UO-31 renal
COLO 205 colon = system: COLO 205 colon
HCC-2998 colon = system: HCC-2998 colon
TK-10 renal = system: TK-10 renal
M14 melanoma = system: M14 melanoma
SF-268 CNS = system: SF-268 CNS
SK-MEL-2 melanoma = system: SK-MEL-2 melanoma
HT29 colon = system: HT29 colon
SF-539 CNS = system: SF-539 CNS
RXF 393 renal = system: RXF 393 renal
HL-60(TB) leukemia = system: HL-60(TB) leukemia
SK-MEL-28 melanoma = system: SK-MEL-28 melanoma
SK-MEL-5 melanoma = system: SK-MEL-5 melanoma
SR leukemia = system: SR leukemia
786-0 renal = system: 786-0 renal
NCI-H460 lung = system: NCI-H460 lung
SNB-75 CNS = system: SNB-75 CNS
LOX IMVI melanoma = system: LOX IMVI melanoma
EKVX NSCLC = system: EKVX NSCLC
HS 578T breast = system: HS 578T breast
MCF7 breast = system: MCF7 breast
MDA-MB-435 = system: MDA-MB-435
KM12 colon = system: KM12 colon
SN12C renal = system: SN12C renal
T-47D breast = system: T-47D breast
PC-3 prostate = system: PC-3 prostate
NCI-H522 lung = system: NCI-H522 lung
OVCAR-5 ovarian = system: OVCAR-5 ovarian
NCI-H226 lung = system: NCI-H226 lung
NCI/ADR-RES ovarian = system: NCI/ADR-RES ovarian
MOLT-4 leukemia = system: MOLT-4 leukemia
UACC-62 melanoma = system: UACC-62 melanoma
HOP-62 NSCLC = system: HOP-62 NSCLC
NCI-H23 lung = system: NCI-H23 lung
SW-620 colon = system: SW-620 colon
RPMI-8226 leukemia = system: RPMI-8226 leukemia
MDA-MB-231 breast = system: MDA-MB-231 breast
BT-549 breast = system: BT-549 breast
UACC-257 melanoma = system: UACC-257 melanoma
SK-OV-3 ovarian = system: SK-OV-3 ovarian
SF-295 CNS = system: SF-295 CNS
CAKI-1 renal = system: CAKI-1 renal

What does the source list for `C=C(c1ccc(OC)c(N)c1)c1cc(C)nc2ccccc12`?
GI50 (U251 CNS): < 0.01 µM; TGI (U251 CNS): > 100 µM; GI50 (K-562 leukemia): < 0.01 µM; TGI (K-562 leukemia): > 93 µM; GI50 (MDA-MB-468 breast): < 0.01 µM; TGI (MDA-MB-468 breast): 76.3 µM; GI50 (HCT-116 colon): < 0.01 µM; TGI (HCT-116 colon): > 100 µM; GI50 (OVCAR-8 ovarian): < 0.01 µM; GI50 (HCT-15 colon): < 0.01 µM; GI50 (MALME-3M melanoma): < 0.01 µM; TGI (MALME-3M melanoma): 31.6 µM; GI50 (CCRF-CEM leukemia): < 0.01 µM; GI50 (DU-145 prostate): < 0.01 µM; TGI (DU-145 prostate): > 100 µM; GI50 (HOP-92 NSCLC): 0.18 µM; TGI (HOP-92 NSCLC): 43 µM; GI50 (OVCAR-4 ovarian): 7.41 µM; TGI (OVCAR-4 ovarian): > 100 µM; GI50 (IGROV1 ovarian): < 0.01 µM; TGI (IGROV1 ovarian): > 100 µM; GI50 (ACHN renal): < 0.01 µM; TGI (ACHN renal): 61.9 µM; GI50 (A498 renal): 36.8 µM; TGI (A498 renal): > 100 µM; GI50 (SNB-19 CNS): < 0.01 µM; TGI (SNB-19 CNS): > 100 µM; GI50 (A549 NSCLC): < 0.01 µM; TGI (A549 NSCLC): > 100 µM; GI50 (UO-31 renal): < 0.01 µM; TGI (UO-31 renal): 64.6 µM; GI50 (COLO 205 colon): < 0.01 µM; TGI (COLO 205 colon): < 0.01 µM; GI50 (HCC-2998 colon): < 0.01 µM; TGI (HCC-2998 colon): 0.466 µM; GI50 (TK-10 renal): 18.7 µM; TGI (TK-10 renal): > 100 µM; GI50 (M14 melanoma): < 0.01 µM; TGI (M14 melanoma): 15.2 µM; GI50 (SF-268 CNS): < 0.01 µM; TGI (SF-268 CNS): 37.4 µM; GI50 (SK-MEL-2 melanoma): < 0.01 µM; TGI (SK-MEL-2 melanoma): < 0.01 µM; GI50 (HT29 colon): < 0.01 µM; TGI (HT29 colon): < 0.01 µM; GI50 (SF-539 CNS): < 0.01 µM; TGI (SF-539 CNS): < 0.01 µM; GI50 (RXF 393 renal): < 0.01 µM; TGI (RXF 393 renal): 79 µM; GI50 (HL-60(TB) leukemia): < 0.01 µM; TGI (HL-60(TB) leukemia): < 0.01 µM; GI50 (SK-MEL-28 melanoma): < 0.01 µM; TGI (SK-MEL-28 melanoma): 98.2 µM; GI50 (SK-MEL-5 melanoma): < 0.01 µM; TGI (SK-MEL-5 melanoma): < 0.01 µM; GI50 (SR leukemia): < 0.01 µM; TGI (SR leukemia): 34.6 µM; GI50 (786-0 renal): < 0.01 µM; TGI (786-0 renal): > 100 µM; GI50 (NCI-H460 lung): < 0.01 µM; TGI (NCI-H460 lung): > 32 µM; GI50 (SNB-75 CNS): < 0.01 µM; TGI (SNB-75 CNS): 83.7 µM; GI50 (LOX IMVI melanoma): < 0.01 µM; TGI (LOX IMVI melanoma): 27.4 µM; GI50 (EKVX NSCLC): < 0.01 µM; TGI (EKVX NSCLC): > 51.6 µM; GI50 (HS 578T breast): < 0.01 µM; TGI (HS 578T breast): > 100 µM; GI50 (MCF7 breast): < 0.01 µM; TGI (MCF7 breast): > 37.1 µM; GI50 (MDA-MB-435): < 0.01 µM; TGI (MDA-MB-435): 0.118 µM; GI50 (KM12 colon): < 0.01 µM; TGI (KM12 colon): 11.5 µM; GI50 (SN12C renal): < 0.01 µM; TGI (SN12C renal): > 44.9 µM; GI50 (T-47D breast): 12.6 µM; TGI (T-47D breast): > 100 µM; GI50 (PC-3 prostate): < 0.01 µM; TGI (PC-3 prostate): > 100 µM; GI50 (NCI-H522 lung): < 0.01 µM; TGI (NCI-H522 lung): < 0.01 µM; GI50 (OVCAR-5 ovarian): < 0.01 µM; TGI (OVCAR-5 ovarian): > 100 µM; GI50 (NCI-H226 lung): < 0.0115 µM; TGI (NCI-H226 lung): > 100 µM; GI50 (NCI/ADR-RES ovarian): < 0.01 µM; TGI (NCI/ADR-RES ovarian): < 0.01 µM; GI50 (MOLT-4 leukemia): < 0.01 µM; TGI (MOLT-4 leukemia): 26.6 µM; GI50 (UACC-62 melanoma): < 0.01 µM; TGI (UACC-62 melanoma): 22.4 µM; GI50 (HOP-62 NSCLC): < 0.01 µM; TGI (HOP-62 NSCLC): > 100 µM; GI50 (NCI-H23 lung): < 0.01 µM; TGI (NCI-H23 lung): 36.1 µM; GI50 (SW-620 colon): < 0.01 µM; TGI (SW-620 colon): > 100 µM; GI50 (RPMI-8226 leukemia): < 0.01 µM; TGI (RPMI-8226 leukemia): 21.3 µM; GI50 (MDA-MB-231 breast): < 0.01 µM; TGI (MDA-MB-231 breast): < 0.01 µM; GI50 (BT-549 breast): < 0.01 µM; GI50 (UACC-257 melanoma): 3.98 µM; TGI (UACC-257 melanoma): 75 µM; GI50 (SK-OV-3 ovarian): < 0.01 µM; GI50 (SF-295 CNS): < 0.01 µM; GI50 (CAKI-1 renal): < 0.01 µM; TGI (CAKI-1 renal): > 96.2 µM
